Experimental data published in ChEMBL document CHEMBL3044687, “Microwave-assisted synthesis of some novel and potent antibacterial and antifungal compounds with biological screening” (2012).

Columns and labels:
Type in all cases: functional
Conditions in all cases: read-out: DIZ
Escherichia coli [1] = assay: Antibacterial activity against Escherichia coli at 200 ug/ml after 24 hr by disk diffusion method
Candida albicans [2] = assay: Antifungal activity against Candida albicans at 100 ug/ml after 48 hr by disk diffusion method
Staphylococcus aureus [3] = assay: Antibacterial activity against Staphylococcus aureus at 200 ug/ml after 24 hr by disk diffusion method
Candida albicans [4] = assay: Antifungal activity against Candida albicans at 200 ug/ml after 48 hr by disk diffusion method
Bacillus subtilis [5] = assay: Antibacterial activity against Bacillus subtilis at 200 ug/ml after 24 hr by disk diffusion method
Candida albicans [6] = assay: Antifungal activity against Candida albicans at 50 ug/ml after 48 hr by disk diffusion method
Pseudomonas aeruginosa [7] = assay: Antibacterial activity against Pseudomonas aeruginosa at 200 ug/ml after 24 hr by disk diffusion method
Aspergillus niger [8] = assay: Antifungal activity against Aspergillus niger at 100 ug/ml after 48 hr by disk diffusion method
Aspergillus niger [9] = assay: Antifungal activity against Aspergillus niger at 50 ug/ml after 48 hr by disk diffusion method
Escherichia coli [10] = assay: Antibacterial activity against Escherichia coli at 50 ug/ml after 24 hr by disk diffusion method
Pseudomonas aeruginosa [11] = assay: Antibacterial activity against Pseudomonas aeruginosa at 100 ug/ml after 24 hr by disk diffusion method
Aspergillus niger [12] = assay: Antifungal activity against Aspergillus niger at 200 ug/ml after 48 hr by disk diffusion method
Bacillus subtilis [13] = assay: Antibacterial activity against Bacillus subtilis at 100 ug/ml after 24 hr by disk diffusion method
Escherichia coli [14] = assay: Antibacterial activity against Escherichia coli at 100 ug/ml after 24 hr by disk diffusion method
Staphylococcus aureus [15] = assay: Antibacterial activity against Staphylococcus aureus at 50 ug/ml after 24 hr by disk diffusion method
Bacillus subtilis [16] = assay: Antibacterial activity against Bacillus subtilis at 50 ug/ml after 24 hr by disk diffusion method
Pseudomonas aeruginosa [17] = assay: Antibacterial activity against Pseudomonas aeruginosa at 50 ug/ml after 24 hr by disk diffusion method
Staphylococcus aureus [18] = assay: Antibacterial activity against Staphylococcus aureus at 100 ug/ml after 24 hr by disk diffusion method

Row | Structure (SMILES) | zone of inhibition at 200 µg/mL (Escherichia coli [1]) [mm] | zone of inhibition at 100 µg/mL (Candida albicans [2]) [mm] | zone of inhibition at 200 µg/mL (Staphylococcus aureus [3]) [mm] | zone of inhibition at 200 µg/mL (Candida albicans [4]) [mm] | zone of inhibition at 200 µg/mL (Bacillus subtilis [5]) [mm] | zone of inhibition at 50 µg/mL (Candida albicans [6]) [mm] | zone of inhibition at 200 µg/mL (Pseudomonas aeruginosa [7]) [mm] | zone of inhibition at 100 µg/mL (Aspergillus niger [8]) [mm] | zone of inhibition at 50 µg/mL (Aspergillus niger [9]) [mm] | zone of inhibition at 50 µg/mL (Escherichia coli [10]) [mm] | zone of inhibition at 100 µg/mL (Pseudomonas aeruginosa [11]) [mm] | zone of inhibition at 200 µg/mL (Aspergillus niger [12]) [mm] | zone of inhibition at 100 µg/mL (Bacillus subtilis [13]) [mm] | zone of inhibition at 100 µg/mL (Escherichia coli [14]) [mm] | zone of inhibition at 50 µg/mL (Staphylococcus aureus [15]) [mm] | zone of inhibition at 50 µg/mL (Bacillus subtilis [16]) [mm] | zone of inhibition at 50 µg/mL (Pseudomonas aeruginosa [17]) [mm] | zone of inhibition at 100 µg/mL (Staphylococcus aureus [18]) [mm]
1 | CN(C)CN1C(=O)N(c2ccccc2)C(=O)C1(c1ccccc1)c1ccccc1 | 18 | 18 | 12 | 19 | 18 | 16 | 14 | 18 | 16 | 5 | 10 | 18 | 10 | 13 | 4 | 5 | 6 | 9
2 | O=C1NC(c2ccccc2)(c2ccccc2)C(=O)N1CNc1nc2ccccc2s1 | 23 | 18 | 19 | 32 | 21 | 17 | 20 | 19 | 16 | 6 | 12 | 31 | 10 | 15 | 5 | 7 | 7 | 10
3 | CN1CCN(CN2C(=O)N(c3ccccc3)C(=O)C2(c2ccccc2)c2ccccc2)CC1 | 16 | 13 | 18 | 13 | 14 | 12 | 10 | 12 | 11 | 6 | 6 | 12 | 5 | 13 | 6 | 4 | 4 | 10
4 | O=C1NC(c2ccccc2)(c2ccccc2)C(=O)N1Cn1nnc2ccccc21 | 18 | 12 | 18 | 13 | 22 | 11 | 14 | 11 | 11 | 3 | 10 | 11 | 14 | 10 | 6 | 5 | 6 | 12
5 | O=C1NC(c2ccccc2)(c2ccccc2)C(=O)N1Cn1ccnc1 | 22 | 24 | 20 | 30 | 15 | 17 | 20 | 17 | 15 | 6 | 10 | 19 | 11 | 16 | 6 | 5 | 6 | 11
6 | CN(C)CN1C(=O)NC(c2ccccc2)(c2ccccc2)C1=O | 22 | 18 | 12 | 19 | 22 | 16 | 17 | 18 | 16 | 5 | 10 | 18 | 10 | 13 | 4 | 5 | 6 | 9
7 | O=C1N(c2ccccc2)C(=O)C(c2ccccc2)(c2ccccc2)N1Cn1cnc2ccccc21 | 18 | 24 | 12 | 32 | 18 | 16 | 12 | 19 | 16 | 6 | 8 | 32 | 13 | 12 | 5 | 5 | 4 | 10
8 | O=C1N(c2ccccc2)C(=O)C(c2ccccc2)(c2ccccc2)N1Cn1nnc2ccccc21 | 14 | 12 | 14 | 13 | 18 | 11 | 12 | 11 | 11 | 3 | 10 | 11 | 12 | 8 | 4 | 5 | 6 | 10
9 | O=C1NC(c2ccccc2)(c2ccccc2)C(=O)N1CN1CCOCC1 | 17 | 12 | 9 | 15 | 14 | 10 | 14 | 11 | 10 | 4 | 8 | 12 | 12 | 10 | 5 | 4 | 4 | 6
